Experimental data published in US10308700B2, “GLP-1 derivatives” (Novo Nordisk A/S, priority 2011, dated 2019).

Biological target: T1, human GLP-1 receptor (Homo sapiens, UniProt P43220)
T1 construct: expressed in transfected cells; host or cells: BHK467-12A (tk-ts13), baby hamster kidney; purified plasma membranes
Test: In vitro potency (CRE luciferase; whole cells)
Assay type: cell-based
Experimental: The purpose of this example is to test the activity, or potency, of the GLP-1 derivatives in vitro. The in vitro potency is the measure of human GLP-1 receptor activation in a whole cell assay.
In vitro potency was determined by measuring the response of human GLP-1 receptor in a reporter gene assay. The assay was performed in a stably transfected BHK cell line that expresses the human GLP-1 receptor and contains the DNA for the cAMP response element (CRE) coupled to a promoter and the gene for firefly luciferase (CRE luciferase). When the human GLP-1 receptor was activated it results in the production of cAMP, which in turn results in the luciferase protein being expressed. When assay incubation was completed the luciferase substrate (luciferin) was added and the enzyme converts luciferin to oxyluciferin and produces bioluminescence. The luminescence was measured and was the readout for the assay.
The cells were cultured at 5% CO2 in cell culture medium. They were aliquoted and stored in liquid nitrogen. Before each assay an aliquot was taken up and washed twice in PBS before being suspended at the desired concentration in the assay specific buffer.
• 1) Cell stocks were thawed in a 37° C. water bath. • 2) Cells were washed three times in PBS. • 3) The cells were counted and adjusted to 5×10^3 cells/50 μl (1×10^5 cells/ml) in assay medium. […]

T1 sequence (P43220 24-463): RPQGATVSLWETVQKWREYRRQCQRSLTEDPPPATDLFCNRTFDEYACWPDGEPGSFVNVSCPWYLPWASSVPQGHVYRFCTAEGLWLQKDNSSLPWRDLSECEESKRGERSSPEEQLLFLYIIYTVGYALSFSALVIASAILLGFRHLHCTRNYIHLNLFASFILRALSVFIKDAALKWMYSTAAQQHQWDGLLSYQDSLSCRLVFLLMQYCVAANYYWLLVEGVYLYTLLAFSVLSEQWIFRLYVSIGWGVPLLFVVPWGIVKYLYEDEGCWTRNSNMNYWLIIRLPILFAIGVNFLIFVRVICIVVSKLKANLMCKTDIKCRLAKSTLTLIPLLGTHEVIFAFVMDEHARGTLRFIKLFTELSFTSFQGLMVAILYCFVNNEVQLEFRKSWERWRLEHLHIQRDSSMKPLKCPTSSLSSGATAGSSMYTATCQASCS

**Q.** How did the EC50 turn out when CC[C@H](C)[C@H](NC(=O)[C@H](Cc1ccccc1)NC(=O)[C@H](CCC(=O)O)NC(=O)[C@H](CCCCNC(=O)[C@@H](N)CCCCNC(=O)[C@H](CO)NC(=O)CNC(=O)[C@H](CO)NC(=O)CC[C@H](NC(=O)CCCCCCCCCCCOc1ccc(C(=O)O)cc1)C(=O)O)NC(=O)[C@H](C)NC(=O)[C@H](C)NC(=O)[C@H](CCC(N)=O)NC(=O)CNC(=O)[C@H](CCC(=O)O)NC(=O)[C@H](CC(C)C)NC(=O)[C@H](Cc1ccc(O)cc1)NC(=O)[C@H](CO)NC(=O)[C@H](CO)NC(=O)[C@@H](NC(=O)[C@H](CC(=O)O)NC(=O)[C@H](CO)NC(=O)[C@@H](NC(=O)[C@H](Cc1ccccc1)NC(=O)[C@@H](NC(=O)CNC(=O)[C@H](CCC(=O)O)NC(=O)C(C)(C)NC(=O)[C@@H](N)Cc1c[nH]cn1)[C@@H](C)O)[C@@H](C)O)C(C)C)C(=O)N[C@@H](C)C(=O)N[C@@H](Cc1c[nH]c2ccccc12)C(=O)N[C@@H](CC(C)C)C(=O)N[C@H](C(=O)N[C@@H](CCCNC(=N)N)C(=O)NCC(=O)N[C@@H](CCCNC(=N)N)C(=O)N[C@@H](CCCCNC(=O)[C@@H](N)CCCCNC(=O)[C@H](CO)NC(=O)CNC(=O)[C@H](CO)NC(=O)CC[C@H](NC(=O)CCCCCCCCCCCOc1ccc(C(=O)O)cc1)C(=O)O)C(=O)O)C(C)C [Example 29] was run?
**A.** 5 pM
